Measured values: paper PMC9824695 (Molecules, 2023)
Entries after “also recorded” stand apart in the source; their conditions may differ. Read-outs that look alike come from different tables or passages of the source.

How the values were obtained:
[1] = target: human mu opioid receptor (CHOhMOP) (Homo sapiens, UniProt P35372); test: cell-based
male Kunming mice [2] = test: Conditioned place preference; assay type: in vivo, mouse (Kunming); details: 10 mg/kg s.c.
Procedure: The conditioned place preference experiment is a classical model for evaluating dependence. The device consisted of three compartments. Two large compartments (20 × 20 × 20 cm) were connected by a narrower compartment (5 × 20 × 20 cm). The large compartments were visually and tactually distinct (white walls with rough floors and black walls with smooth floors). Before the unbiased experiment, the mice were allowed to move freely for 15 min to accommodate the apparatus. On the first day, the time the mice spent in each compartment was documented within 15 min. Over the next 3 days, the mice were subcutaneously administered drugs and were limited to one of the two large compartments. Approximately 6 h later, the mice were subcutaneously injected with saline and confined to the opposite compartment. On the fifth day, the mice moved freely for 15 min, and the time spent in the drug-associated preference compartment was recorded. The conditioned place preference score was calculated as: score = time spent in the drug-associated preference compartment on the fifth day − time spent in the same compartment on the first day.

male Kunming mice [3] = test: Gastrointestinal transit test (charcoal meal); assay type: in vivo, mouse (Kunming); details: 10 mg/kg s.c.; for GIT%: 15 min before charcoal meal, 30 min, p < 0.05, lower = stronger inhibition
Procedure: The mice were fasted for 16 h with free access to water. Drugs were subcutaneously injected 15 min before the oral administration of a charcoal meal (an aqueous suspension of 5% charcoal and 10% gum arable). Thirty minutes after the oral administration, the animals were sacrificed. The farthest traveled distance by the charcoal meal (L1) and total length of the small intestine (L2) were measured. The GIT inhibition by analgesics was represented by GIT% = (L1/L2) × 100.

male Kunming mice [4] = test: Rotarod test; assay type: in vivo, mouse (Kunming); details: 10 mg/kg s.c.; compared with saline
[5] = Blood-brain barrier penetration; details: inferred from naloxone methiodide s.c. vs i.c.v. antagonism in mice
[6] = 15% mouse brain homogenate; cited from earlier work
human sperm = test: Human sperm motility in vitro; details: 0.0001, 0.001, 0.01, 0.1, 1, or 10 µM, 4-h incubation, 37 °C, n = 5
male Kunming mice [7] = test: Acute hyperlocomotion test (open field); details: 10 mg/kg s.c.; 150 min
[8] = target: human delta opioid receptor (CHOhDOP) (Homo sapiens, UniProt P41143); test: Calcium mobilization assay, CHOhDOP cells
male Kunming mice [9] = test: Antinociceptive tolerance (tail-flick, 8 days); details: 10 mg/kg s.c. once a day
male Kunming mice [10] = test: Naloxone-induced withdrawal response (jumping); details: 10 mg/kg s.c.; method: 20, 40, 60, 80, 100, 100, 100 mg/kg every 8 h, naloxone 10 mg/kg
male Kunming mice [11] = test: Radiant heat tail-flick test; assay type: in vivo, mouse (Kunming); details: for ED50: Mus musculus, sc
Description: The radiant heat tail-flick test has been widely used as an acute pain model to examine the effects of analgesics. The mice were gently stabilized by hand, and the dorsal surface of the tail, 3 cm from the distal end, was placed on a radiant heat source. The cutoff time was set to 10 s to avoid tissue damage. Radiant heat intensity was adapted to engender a basal latency within 3–5 s in naive mice. Tail-flick latency was defined as the time when the mouse flicked its tail away from the radiant heat source. The data of antinociceptive effects for each animal after treatment were calculated as a percentage of the maximal possible effect (MPE%): MPE (%) = 100 × [(postdrug response − baseline response)/(cutoff response − baseline response)]. The MPE% from each animal was converted to an area under the curve (AUC).
Statistical significance was set at p < 0.05.

male Kunming mice [12] = test: Carrageenan-induced inflammatory pain; assay type: in vivo, mouse (Kunming); details: s.c.
male Kunming mice [13] = test: Acetic acid-induced writhing test; assay type: in vivo, mouse (Kunming); details: 0.6% acetic acid i.p.
Procedure: An acetic acid-induced writhing test was performed to investigate visceral pain [43]. The increase in intensity of drug analgesia would be accompanied by a decrease in the writhing number. The mice were acclimatized in a transparent acrylic chamber (20 × 20 × 30 cm) for 15–20 min. First, the mice were subcutaneously injected with drugs. Five minutes later, they were intraperitoneally injected with 0.6% acetic acid solution. Within 5–15 min after injecting acetic acid, the number of writhes was recorded. Writhe was defined as a contraction of the abdominal muscles and stretching of the hind limbs.

male Kunming mice [14] = test: Formalin test; assay type: in vivo, mouse (Kunming); details: phase I 0–5 min
Procedure: The formalin test was conducted to explore a characteristic biphasic pain response. The better the analgesic effect in mice, the shorter the average licking/biting/shaking paw time. The mice were acclimated in a transparent plexiglass chamber (20 × 20 × 30 cm) for 15–20 min. First, the mice received a subcutaneous injection of drugs. Five minutes later, 20 μL of 5% formalin was administered by intraplantar injection to the right hind paw. The mice were immediately placed back in the chamber. Simultaneously, the time spent licking, biting, and shaking the injected paw was recorded within 0–5 and 15–30 min.

MOR = details: cited from earlier work
DOR = details: cited from earlier work
KOR = details: cited from earlier work
Description: Table 2 The actions of agonists and antagonists at opioid receptors. | column: Ki^(KOR) (nM)

opioid receptors = details: cited from earlier work
[15] = cited from earlier work
mice = test system: mice; design: method as in 2 sources, ref 9 = [9]; PMID 9087409; doi:10.1038/386499a0; 9. Zadina J.E. Hackler L. Ge L.-J. Kastin A.J.J.N. A potent and selective endogenous agonist for the µ-opiate receptor Nature 1997 386 499 502 10.1038/386499a0 9087409 ||| ref 16 = [16]; PMID 31444977; doi:10.1111/bph.14848; 16. Xu B. Zhang M. Shi X. Zhang R. Chen D. Chen Y. Wang Z. Qiu Y. Zhang T. Xu K. The multifunctional peptide DN-9 produced peripherally acting antinociception in inflammatory and neuropathic pain via; details: cited from earlier work

Sequence of human delta opioid receptor (CHOhDOP) (P41143 whole entry): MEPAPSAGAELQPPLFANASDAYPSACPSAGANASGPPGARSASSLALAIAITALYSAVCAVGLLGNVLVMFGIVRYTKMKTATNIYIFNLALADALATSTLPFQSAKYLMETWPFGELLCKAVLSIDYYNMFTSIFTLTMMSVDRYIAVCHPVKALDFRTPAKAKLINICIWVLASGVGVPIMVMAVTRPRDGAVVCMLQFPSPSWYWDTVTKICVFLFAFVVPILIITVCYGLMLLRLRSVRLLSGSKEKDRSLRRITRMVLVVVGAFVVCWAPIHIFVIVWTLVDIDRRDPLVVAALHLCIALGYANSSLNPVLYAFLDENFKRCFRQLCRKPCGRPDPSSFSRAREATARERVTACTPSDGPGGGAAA
Sequence of human mu opioid receptor (CHOhMOP) (P35372 whole entry): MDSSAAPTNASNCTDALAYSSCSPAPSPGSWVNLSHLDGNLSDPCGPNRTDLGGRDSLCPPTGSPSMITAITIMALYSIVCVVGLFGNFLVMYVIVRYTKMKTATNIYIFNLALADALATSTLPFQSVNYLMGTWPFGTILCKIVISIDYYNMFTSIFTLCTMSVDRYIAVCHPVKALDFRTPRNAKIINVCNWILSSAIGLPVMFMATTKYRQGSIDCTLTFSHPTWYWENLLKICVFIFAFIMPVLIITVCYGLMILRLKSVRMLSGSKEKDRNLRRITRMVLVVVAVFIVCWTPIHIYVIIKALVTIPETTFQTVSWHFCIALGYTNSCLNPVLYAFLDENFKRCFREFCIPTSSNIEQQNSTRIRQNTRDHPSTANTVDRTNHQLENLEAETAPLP

C[C@@H](NC(=O)[C@@H](N)Cc1ccc(O)cc1)C(=O)NCC(=O)N[C@@H](Cc1ccccc1)C(N)=O [HAGD, H-Tyr-D-AIa-GIy-Phe-NH2]
Emax [1]: 103 ± 1.58% | EC50 ([1]; CHOhMOP, duplicate, repeated at least three times): 81.7 nM | conditioned place preference (in words) (male Kunming mice [2]): did not induce a place preference change; also recorded: substantial difference in the conditioned place preference scores between the HAGD and morphine groups | gastrointestinal transit (in words) (male Kunming mice [3]): significant delay compared with saline | GIT% (male Kunming mice [3]): 44.83 ± 4.14% | endurance time on rotating rod (in words) (male Kunming mice [4]): no significant difference in the endurance time | BBB permeability [5]: poor BBB permeability; also recorded: poor ability of HAGD to penetrate the BBB into the CNS | half-life in brain homogenate [6]: 4.3288 ± 0.6835 h | sperm progressive motility (PR), HAGD (in words) (human sperm): did not produce significant changes in sperm PR; also recorded: did not have a significant negative effect on human sperm motility | locomotor activity (in words) (male Kunming mice [7]): did not show an apparent effect on locomotion compared with saline | EC50 [8]: 2630 nM | Emax ([8]; read-out: Emax ± S.E.M.): 110 ± 7.21% | antinociceptive tolerance (male Kunming mice [9]): non-tolerance antinociception for 8 consecutive days; also recorded: non-tolerance antinociception for eight consecutive days | withdrawal response (male Kunming mice [10]): significant withdrawal response; also recorded: significant physical dependence

CN1CC[C@]23c4c5ccc(O)c4O[C@H]2[C@@H](O)C=C[C@H]3[C@H]1C5 [morphine]
ED50 (male Kunming mice [11]; mice, equivalent of the mg/kg value, read-out: antinociceptive ED50 (molar equivalent)): 16.3 µmol/kg | ED50 (male Kunming mice [11]; read-out: antinociceptive ED50): 5.24 mg/kg | time of peak tail-flick latency (male Kunming mice [11]; s.c., mice): 30 min | duration of anti-allodynic activity (male Kunming mice [12]; carrageenan-treated mice): 60 min | time of peak anti-allodynic effect (male Kunming mice [12]; post-injection): 30 min | average writhing number (male Kunming mice [13]; 1 mg/kg s.c., 5–15 min, mean ± S.E.M., saline 34 ± 2.49): 4.60 ± 2.43 | inhibition of writhing response (in words) (male Kunming mice [13]; s.c.): inhibited the writhing response | formalin test phase I response (male Kunming mice [14]; 10 mg/kg s.c., 5% formalin intraplantar, mean ± S.E.M., p < 0.05, lower = better): 67.36 ± 3.93 | formalin-induced nociceptive responses, phases I and II (in words) (male Kunming mice [14]; s.c., morphine 10 mg/kg, phase II 15–30 min): attenuated nociceptive responses in both phases I and II | conditioned place preference (in words) (male Kunming mice [2]): significant place preference change | conditioned place preference score (male Kunming mice [2]; mean ± S.E.M.): 140.50 ± 43.96 | gastrointestinal transit (in words) (male Kunming mice [3]): significantly weakened the GIT and exhibited a greater inhibitory effect than HAGD | GIT% (male Kunming mice [3]): 24.11 ± 3.79% | locomotor activity (in words) (male Kunming mice [7]): enhanced the locomotor activity of mice and significantly increased the total distance traveled compared with saline or HAGD | antinociceptive tolerance (male Kunming mice [9]): decreased significantly from days 5 to 8; also recorded: produced antinociceptive tolerance in the tail-flick test | withdrawal response (male Kunming mice [10]): significant withdrawal response; also recorded: significant physical dependence

C=CC[N+]1(C)CC[C@]23c4c5ccc(O)c4O[C@H]2C(=O)CC[C@@]3(O)[C@H]1C5 (stereo partly shown) [naloxone methiodide]
Ki (MOR): 28.9 nM | Ki (DOR): 1010 nM | Ki (KOR): 204 nM | Antagonist (receptors) (opioid receptors): MOR DOR KOR | peripheral restriction ([15]; opioid receptor antagonist): peripherally restricted

Oc1ccc2c3c1O[C@H]1c4[nH]c5ccccc5c4C[C@@]4(O)[C@@H](C2)N(CC2CC2)CC[C@]314 [naltrindole]
Ki (DOR): 0.02 nM | Antagonist (receptors) (opioid receptors): DOR

Oc1ccc2c3c1O[C@H]1c4[nH]c5c(c4C[C@@]4(O)[C@@H](C2)N(CC2CC2)CC[C@]314)C[C@@]1(O)[C@H]2Cc3ccc(O)c4c3[C@@]1(CCN2CC1CC1)[C@H]5O4 [nor-binaltorphimine]
Antagonist (receptors) (opioid receptors): KOR

COC(=O)/C=C/C(=O)N[C@@H]1CC[C@@]2(O)[C@H]3Cc4ccc(O)c5c4[C@@]2(CCN3CC2CC2)[C@H]1O5 [β-funaltrexamine]
Ki (MOR; binds covalently to MOR): 0.3 nM | Antagonist (receptors) (opioid receptors): The inhibition constant (Ki) represented the agonist or antagonist affinity. ^a Drug dosage was in mg/kg (or µmol/kg) for each animal (subcutaneously). ^b β-funaltrexamine binds covalently to MOR. MOR, mu opioid receptor; DOR, delta opioid receptor; KOR, kappa opioid receptor. nM, nmol/L; also recorded: MOR ^b

Tyr1-Pro2-Phe3-Phe4-NH2 [endomorphin-2]
selectivity for MOR (MOR): highly selective for MORs | antinociception compared with morphine (mice): more potent and prolonged antinociception than morphine in mice

Tyr1-Pro2-Trp3-Phe4-NH2 [endomorphin-1]
selectivity for MOR (MOR): highly selective for MORs | half-life in brain homogenate [6]: 0.3923 ± 0.00417 h | antinociception compared with morphine (mice): more potent and prolonged antinociception than morphine in mice | BBB crossing ([15]; into the CNS as an analgesic): inability of endomorphin-1 to cross the blood–brain barrier (BBB)
